The source of these data is US11896706B2, “Composition for preventing hair loss or promoting hair growth, comprising, as active ingredient, mixed extract of cucumber, eggplant and snail extracts as active ingredient” (OGADAL INC., priority 2020, dated 2024).

Each structure is given as a SMILES string. Marks after values point to notes of the source that are not given here.

Assay [1] deals with C57BL/6 mice depilated on the back. Description: Animal experiment for hair growth-promoting effect in depilated mice. It counts as in vivo, mouse. The settings on record: 5 wt % minoxidil, 0.2 mL topical once a day. Here is the method: The hair growth-promoting effect of the composition of the present disclosure was investigated using C57BL/6 mice. 49- to 51-day-old C57BL/6N mice, in the second […], were depilated completely on the back using wax. While applying 0.2 mL of Example 2-1 or 2-3 at a solid content of 1 wt % or 20 wt %, or 5 wt % minoxidil as a positive control group, diluted in water, once a day for 16 days, hair-growing effect was monitored. Distilled water was used as a negative control group. The hair growth index with time was evaluated by the 3-point scale (see Table 4).

Assay [2] concerns hepatocyte growth factor (HGF). Nature of the assay: RT-PCR expression of hair-related gene HGF in dermal papilla cells. The format is cell-based. The settings on record: 1 μg/mL minoxidil, 18 hours. As for the experimental part:
(§1) RT-PCR (reverse transcription polymerase chain reaction) was conducted in order to investigate the effect on the expression of hair-related genes, insulin-like growth factor 1 (IGF-1), hepatocyte growth factor (HGF) and keratinocyte growth factor (KGF). Dermal papilla cells were seeded onto a 100-mm cell culture dish at a density of 80% and then cultured for 24 hours at 37° C. in a 5% CO2 incubator. DMEM (Dulbecco's modified Eagle's medium, BRL, USA) containing 10% bovine serum was used as a medium. After adding 100 μg/mL of a sample (Examples 1-1, 1-2, 1-3 and 1-4; Comparative Examples 1-1, 1-2 and 1-3; Examples 2-1, 2-2 and 2-3) or 1 μg/mL minoxidil as a positive control group, the cells were cultured for 18 hours and RNA was isolated by adding 1 mL of Trizol (Invitrogen, USA) according to the Promega's method. After quantifying RNA at 260 nm using a UV detector, RT-PCR was conducted. The RT-PCR was conducted using a RT-PCR kit (All-in-one RT-PCR kit, SuperBio, Korea) under the condition of 40 cycles of reverse transcription at 50° C. for 30 minutes followed by inactivation of reverse transcriptase at 96° C. for 3 minutes, 94° C. for 30 seconds, 58° C. for 30 seconds and 72° C. for 1 minute. The result was represented as percentage (%) of expression relative to the negative control group (Table 3).

For assay [3], the system named is insulin-like growth factor 1 (IGF-1). Nature of the assay: RT-PCR expression of hair-related gene IGF-1 in dermal papilla cells. It counts as cell-based. The settings on record: 1 μg/mL minoxidil, 18 hours. As for the experimental part:
as §1

Assay [4] deals with keratinocyte growth factor (KGF). Nature of the assay: RT-PCR expression of hair-related gene KGF in dermal papilla cells. It counts as cell-based. The settings on record: 1 μg/mL minoxidil, 18 hours. As for the experimental part: as §1

For `Nc1cc(N2CCCCC2)nc(N)[n+]1[O-]` [Minoxidil, minoxidil], the “Hair growth index (3-point scale)” value is reported as 0 points in assay [1] (Day 0), 1.22 ± 0.26 points in assay [1] (Day 12) and 2.66 ± 0.23 points in assay [1] (Day 16). In addition, in assay [2], the “HGF expression relative to the negative control group” value came to 134.6%**. For the same compound, the “IGF-1 expression relative to the negative control group” value in assay [3] is 119.0%**. Besides, the “KGF expression relative to the negative control group” value in assay [4] is given as 120.2%**.
